{"source": "patent US8067401B2", "about": "“Compounds and compositions for treating infection” (priority 2007, dated 2011)", "origin": "cited, not measured here", "tested_on": "HIV-1", "data": [{"substance": "Prunellin", "values": [{"measurement": "minimum inhibition concentration against HIV-1 in vitro", "result": 2.2, "unit": "µg/mL"}]}]}
